Measurements published in PubChem BioAssay (NCI).
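Briefly, cells in 96-well plates were exposed to five compound concentrations for 48 h, and endpoints were estimated by linear interpolation. TGI denotes the concentration required for complete inhibition of growth.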

Assays:
Assay in all cases: NCI tumour cell line growth inhibition, 48 h
[1] = tested on: A549 NSCLC
[2] = tested on: COLO 205 colon
[3] = tested on: HCT-116 colon
[4] = tested on: HCT-15 colon
[5] = tested on: K-562 leukemia
[6] = tested on: M14 melanoma
[7] = tested on: MDA-N
[8] = tested on: NCI-H226 lung
[9] = tested on: OVCAR-5 ovarian
[10] = tested on: SF-295 CNS
[11] = tested on: SF-539 CNS
[12] = tested on: SK-MEL-2 melanoma
[13] = tested on: SN12C renal
[14] = tested on: SNB-75 CNS
[15] = tested on: SR leukemia
[16] = tested on: SW-620 colon
[17] = tested on: T-47D breast
[18] = tested on: UACC-257 melanoma
[19] = tested on: UO-31 renal
[20] = tested on: MALME-3M melanoma

SMILES	TGI [1] [µM]	TGI [2] [µM]	TGI [3] [µM]	TGI [4] [µM]	TGI [5] [µM]	TGI [6] [µM]	TGI [7] [µM]	TGI [8] [µM]	TGI [9] [µM]	TGI [10] [µM]	TGI [11] [µM]	TGI [12] [µM]	TGI [13] [µM]	TGI [14] [µM]	TGI [15] [µM]	TGI [16] [µM]	TGI [17] [µM]	TGI [18] [µM]	TGI [19] [µM]	TGI [20] [µM]
CCCCCCc1ccc(C(=O)NO)cc1	> 100	> 100	> 100	> 100	> 100	> 100	> 100	> 100	> 100	> 100	> 100	> 100	64.5	> 100	39.2	> 100	82.9	> 100	48.7	–
Cc1n[nH]c(=O)n1/N=C/c1ccc(F)cc1	> 100	> 100	> 100	> 100	> 100	> 100	> 100	–	> 100	> 100	> 100	–	> 100	> 100	> 100	> 100	> 100	> 100	> 100	–
CSC1=Nc2ccccc2-c2nc3ccccc3cc2C1	> 100	> 100	> 100	> 100	> 100	> 100	> 100	> 100	> 100	> 100	> 100	> 100	> 100	–	> 100	–	> 100	> 100	> 100	> 100
C/C(=N\n1c(Cc2ccccc2)n[nH]c1=O)c1ccccc1	> 100	> 100	> 100	> 100	> 100	> 100	> 100	> 100	> 100	–	> 100	> 100	> 100	–	–	> 100	> 100	> 100	> 100	> 100
Cc1ccc(N2C(=O)C=C(C3=C(O)C(=O)N(c4ccc(C)cc4)C3=O)C2=O)cc1	> 100	> 100	> 100	> 100	> 100	> 100	> 100	> 100	> 100	> 100	–	–	> 100	> 100	> 100	> 100	> 100	> 100	> 100	> 100
CC(NO)/C(=N/O)c1ccco1 (stereo not given)	> 10	> 10	> 10	> 10	> 10	> 10	> 10	> 10	> 10	> 10	–	> 10	> 10	–	> 10	> 10	> 10	> 10	> 10	> 10
COc1cccc(C2c3cc4c(cc3OC(N3CCOCC3)C2C)OCO4)c1OC (stereo not given)	> 100	28.2	15.7	> 100	21.1	29	46.9	–	43.6	32.9	30.5	25.5	48.4	37.2	24.4	> 100	79.1	48.8	33.6	–
